Source: US20110009403A1, “2-MORPHOLINYLPURINES AS INHIBITORS OF PI3K” (S*BIO Pte Ltd., priority 2007, published 2011)

Key:
PI3K p110α/p85 = molecular target: T1, PI3K p110α/p85 (Homo sapiens, UniProt P42336); assay: PI3K assay ([γ33P]ATP, PtdIns/PtdSer coated plates); type: biochemical; settings: 2 μM ATP, 1 hour at RT; read-out: IC50 (PI3Kα)
T1 construct: made in house
Protocol: Recombinant PI3K p110α/p85 was prepared in-house. Phosphatidylinositol (PtdIns), phosphotidylserine (PtdSer) and all other unspecified chemicals were purchased from Sigma-Aldrich. [γ^33P]ATP and Optiphase scintillant were obtained from Perkin Elmer.
Assays were performed in a final assay volume of 25 μL in 384-well Maxisorp plates (Nunc). Compounds were tested at 8 concentrations in 3-fold serial dilution, generally starting from 10 μM. Maxisorp plates were coated with 20 μL/well of a 1:1 mixture of PtdIns and PtdSer [0.1 mg/mL each dissolved in chloroform:ethanol (3:7)] and left overnight in a fume hood at room temperature (RT) to dry.
The enzyme reaction was created by pipetting 5 μL/well of compound (in 2.5% DMSO), 10 μL/well of enzyme (0.5 μg/mL p110α+1 μg/mL p85), and 10 μL/well of 5 μM ATP with 5 μCi/mL [γ^33P]ATP in assay buffer (final concentrations: 0.2 μg/mL p110α, 2 μM ATP, […] [γ^33P]ATP in 1× assay buffer: 100 mM Tris-HCl pH 7.0, 200 mM NaCl, 8 mM MgCl2). The reaction was incubated for 1 hour at RT and terminated with 30 μL/well of 50 mM EDTA solution. The plate was then washed twice with TBS, dried, and added with 30 μL/well of scintillant before it was counted in a MicroBeta Trilux.

mTOR = mTOR (Homo sapiens, UniProt P42345); assay: mTOR assay (phosphorylation of 4eBP1, [γ33P]-ATP filter plate); type: biochemical; settings: 10 μM ATP, 1 hour at room temperature
Sequence of mTOR (P42345 1382-2549 limits assumed): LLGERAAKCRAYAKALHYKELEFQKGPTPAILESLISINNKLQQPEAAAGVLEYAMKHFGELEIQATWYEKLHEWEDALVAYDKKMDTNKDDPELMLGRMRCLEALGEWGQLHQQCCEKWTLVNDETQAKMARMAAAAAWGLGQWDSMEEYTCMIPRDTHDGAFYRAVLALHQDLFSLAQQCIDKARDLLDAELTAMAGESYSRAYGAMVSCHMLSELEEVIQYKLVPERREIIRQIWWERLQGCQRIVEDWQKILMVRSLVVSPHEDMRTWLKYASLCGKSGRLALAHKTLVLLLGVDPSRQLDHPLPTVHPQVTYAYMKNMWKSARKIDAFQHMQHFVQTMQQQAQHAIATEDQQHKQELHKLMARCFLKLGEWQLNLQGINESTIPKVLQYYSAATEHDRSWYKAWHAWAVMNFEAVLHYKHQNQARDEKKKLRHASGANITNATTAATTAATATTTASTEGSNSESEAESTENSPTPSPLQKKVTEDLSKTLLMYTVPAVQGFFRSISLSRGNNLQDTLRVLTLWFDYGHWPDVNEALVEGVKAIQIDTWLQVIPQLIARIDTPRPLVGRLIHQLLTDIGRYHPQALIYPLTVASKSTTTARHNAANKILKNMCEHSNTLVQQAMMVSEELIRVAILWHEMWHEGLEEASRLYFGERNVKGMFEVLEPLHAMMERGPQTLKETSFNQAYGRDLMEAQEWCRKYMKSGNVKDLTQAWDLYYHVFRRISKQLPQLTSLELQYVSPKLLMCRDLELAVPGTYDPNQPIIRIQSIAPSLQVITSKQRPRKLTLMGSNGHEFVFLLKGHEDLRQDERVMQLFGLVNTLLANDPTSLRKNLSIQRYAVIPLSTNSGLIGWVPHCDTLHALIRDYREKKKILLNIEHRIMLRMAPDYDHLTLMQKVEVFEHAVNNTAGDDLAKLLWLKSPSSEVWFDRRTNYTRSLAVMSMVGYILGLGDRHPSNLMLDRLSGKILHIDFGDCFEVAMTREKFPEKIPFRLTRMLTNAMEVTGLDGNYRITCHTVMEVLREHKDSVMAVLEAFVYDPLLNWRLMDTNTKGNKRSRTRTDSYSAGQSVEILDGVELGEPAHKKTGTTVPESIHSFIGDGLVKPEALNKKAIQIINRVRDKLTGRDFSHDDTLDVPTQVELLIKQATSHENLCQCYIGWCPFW
Protocol: Truncated mTOR kinase and His-tagged 4eBP1 were produced in-house. [γ^33P]-ATP was purchased from Amersham (GE Healthcare). All chemicals, unless otherwise stated, were from Sigma-Aldrich.
Phosphorylation assays were initially performed in a final volume of 20 μL in 384-well polypropylene plate (Greiner). Compounds were typically tested over the range from 100 μM to 0.006 μM, in 8 step dilutions, in duplicate. 10 μL/well of 2× Enzyme-Substrate solution (1.5 μg/mL mTOR, 40 μg/mL 4eBP1 in 1× assay buffer: 10 mM Hepes pH 7.5, 50 mM NaCl and 10 mM MnCl2) were first added to the sample plate containing 1 μL/well of test compound in neat DMSO. The reaction was initiated by adding 10 μL/well of 20 μM ATP solution (final assay concentration 10 μM ATP and 0.4 μCi/well of [γ^33P]-ATP). After 1 hour incubation at room temperature, the reaction was terminated with 40 μL/well of 20 mM EDTA/1 mM ATP solution.
50 μL/well of the stopped reaction mix was then transferred to 384-well MultiScreenHTS-PH filter plate (Millipore) pre-added with 50 μL/well of 1% phosphoric acid. The plate was washed 4 times with 120 μL/well of 0.5% phosphoric acid via vacuum filtration. Finally, 10 μL/well of Optiphase™ SuperMix liquid scintillation cocktail (Perkin Elmer) was added. After minimum 1 hour of incubation, counting was performed in a Wallac MicroBeta TriLux scintillation counter using coincidence counting mode with crosstalk correction.

T1 sequence (P42336 whole entry): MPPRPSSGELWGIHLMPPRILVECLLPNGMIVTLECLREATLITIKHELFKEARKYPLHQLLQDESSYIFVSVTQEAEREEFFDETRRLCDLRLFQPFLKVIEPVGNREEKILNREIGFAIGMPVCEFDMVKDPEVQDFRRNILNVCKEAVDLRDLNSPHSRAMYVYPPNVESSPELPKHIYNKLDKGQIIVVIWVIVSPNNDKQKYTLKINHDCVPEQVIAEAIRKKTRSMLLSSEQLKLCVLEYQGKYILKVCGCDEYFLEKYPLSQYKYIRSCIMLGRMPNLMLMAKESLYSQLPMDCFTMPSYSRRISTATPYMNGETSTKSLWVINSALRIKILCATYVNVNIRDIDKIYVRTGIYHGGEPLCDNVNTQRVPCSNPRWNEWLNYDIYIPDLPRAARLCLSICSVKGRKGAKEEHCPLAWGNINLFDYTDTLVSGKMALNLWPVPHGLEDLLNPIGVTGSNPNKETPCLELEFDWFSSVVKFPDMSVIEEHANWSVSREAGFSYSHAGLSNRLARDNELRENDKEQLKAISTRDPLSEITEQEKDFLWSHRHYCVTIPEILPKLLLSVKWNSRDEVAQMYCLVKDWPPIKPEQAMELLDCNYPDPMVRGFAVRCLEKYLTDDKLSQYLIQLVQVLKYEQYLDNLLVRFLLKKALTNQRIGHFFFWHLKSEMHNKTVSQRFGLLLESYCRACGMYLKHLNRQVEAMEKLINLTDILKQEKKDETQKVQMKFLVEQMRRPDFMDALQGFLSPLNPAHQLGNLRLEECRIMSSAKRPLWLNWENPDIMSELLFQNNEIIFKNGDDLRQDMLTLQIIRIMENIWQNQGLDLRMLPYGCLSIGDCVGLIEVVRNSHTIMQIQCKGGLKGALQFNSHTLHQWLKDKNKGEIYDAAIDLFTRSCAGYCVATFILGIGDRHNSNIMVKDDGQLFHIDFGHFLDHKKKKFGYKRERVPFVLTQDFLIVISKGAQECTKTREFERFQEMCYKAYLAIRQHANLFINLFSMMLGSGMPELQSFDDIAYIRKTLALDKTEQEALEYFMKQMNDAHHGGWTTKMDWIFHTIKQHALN
T1 sequence (P27986 whole entry partner): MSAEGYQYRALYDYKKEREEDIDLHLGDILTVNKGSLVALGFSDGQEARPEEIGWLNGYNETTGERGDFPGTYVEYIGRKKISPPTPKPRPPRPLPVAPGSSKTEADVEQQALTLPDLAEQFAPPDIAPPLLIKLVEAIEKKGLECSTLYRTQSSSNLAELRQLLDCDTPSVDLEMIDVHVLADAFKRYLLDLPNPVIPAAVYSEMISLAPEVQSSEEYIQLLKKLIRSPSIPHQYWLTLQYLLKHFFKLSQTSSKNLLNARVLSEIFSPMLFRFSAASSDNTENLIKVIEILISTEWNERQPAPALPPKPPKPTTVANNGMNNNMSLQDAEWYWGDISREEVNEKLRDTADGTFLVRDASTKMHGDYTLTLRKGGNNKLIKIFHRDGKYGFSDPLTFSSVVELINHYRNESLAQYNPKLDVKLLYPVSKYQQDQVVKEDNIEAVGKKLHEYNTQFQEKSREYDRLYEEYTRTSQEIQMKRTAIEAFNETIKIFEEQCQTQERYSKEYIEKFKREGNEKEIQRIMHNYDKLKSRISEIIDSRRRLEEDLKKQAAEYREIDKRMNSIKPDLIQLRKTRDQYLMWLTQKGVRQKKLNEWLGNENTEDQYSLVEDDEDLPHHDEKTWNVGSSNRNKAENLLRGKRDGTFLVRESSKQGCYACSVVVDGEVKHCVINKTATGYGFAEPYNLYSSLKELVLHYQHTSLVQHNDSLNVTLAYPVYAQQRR

SMILES	IC50 (PI3K p110α/p85) [µM]	IC50 (mTOR) [µM]
c1nc2cc(-c3nc(N4CCOCC4)nc4c3ncn4CC3CC3)ccc2[nH]1 [Compound 59]	< 1	1 to 5
CC(C)Cn1cnc2c(-c3cccc(O)c3)nc(N3CCOCC3)nc21 [Compound 60]	< 1	< 1
CC1CCC(n2cnc3c(-c4cccc(O)c4)nc(N4CCOCC4)nc32)CC1 (centres unmarked) [Compound 61]	< 1	< 1
CC(C)(C)OC(=O)N1CCC(n2cnc3c(-c4cccc5[nH]ccc45)nc(N4CCOCC4)nc32)C1 (centres unmarked) [Compound 62]	< 1	1 to 5
c1cc2[nH]nnc2cc1-c1nc(N2CCOCC2)nc2c1ncn2CC1CC1 [Compound 64]	1 to 5	> 5
O=c1[nH]c2ccc(-c3nc(N4CCOCC4)nc4c3ncn4CC3CC3)cc2[nH]1 [Compound 65]	> 5	> 5
CC(C)Cn1cnc2c(-c3cccc4[nH]ccc34)nc(N3CCOCC3)nc21 [Compound 66]	< 1	< 1
COCC(C)n1cnc2c(-c3cccc4[nH]ccc34)nc(N3CCOCC3)nc21 (centres unmarked) [Compound 67]	< 1	< 1
COCC(C)n1cnc2c(-c3cccc(O)c3)nc(N3CCOCC3)nc21 (centres unmarked) [Compound 68]	< 1	< 1
CCC(C)n1cnc2c(-c3cccc4[nH]ccc34)nc(N3CCOCC3)nc21 (centres unmarked) [Compound 69]	< 1	< 1
c1cc(-c2nc(N3CCOCC3)nc3c2ncn3CCC2OCCCO2)c2cc[nH]c2c1 [Compound 70]	< 1	1 to 5
Oc1cccc(-c2nc(N3CCOCC3)nc3c2ncn3CC2CCCCC2)c1 [Compound 72]	1 to 5	< 1
c1cc(-c2nc(N3CCOCC3)nc3c2ncn3CC2CCCCC2)c2cc[nH]c2c1 [Compound 73]	< 1	1 to 5
O=C(Cn1cnc2c(-c3cccc(O)c3)nc(N3CCOCC3)nc21)N1CCCC1 [Compound 75, 2-(6-(3-hydroxyphenyl)-2-morpholino-9H-purin-9-yl)-1-(pyrrolidin-1-yl)ethanone]	< 1	< 1
CN1CCN(C(=O)Cn2cnc3c(-c4cccc(O)c4)nc(N4CCOCC4)nc32)CC1 [Compound 76]	< 1	1 to 5
CC(c1ccccc1)n1cnc2c(-c3cccc4[nH]ccc34)nc(N3CCOCC3)nc21 (centres unmarked) [Compound 77]	> 5	< 1
COCCn1cnc2c(-c3cccc4[nH]ccc34)nc(N3CCOCC3)nc21 [Compound 79]	< 1	1 to 5
N#CCn1cnc2c(-c3cccc4[nH]ccc34)nc(N3CCOCC3)nc21 [Compound 80]	< 1	1 to 5
CC1CN(c2nc(-c3cccc4[nH]ccc34)c3ncn(CC#N)c3n2)CC(C)O1 (centres unmarked) [Compound 81]	> 5	> 5
O=C(Cn1cnc2c(-c3cccc(O)c3)nc(N3CCOCC3)nc21)N1CCOCC1 [Compound 82]	< 1	1 to 5
CC(C)NC(=O)Cn1cnc2c(-c3cccc(O)c3)nc(N3CCOCC3)nc21 [Compound 83]	< 1	1 to 5
O=C(Cn1cnc2c(-c3cccc(O)c3)nc(N3CCOCC3)nc21)NC1CC1 [Compound 84]	< 1	1 to 5
c1cc(-c2nc(N3CCOCC3)nc3c2ncn3C2CCNCC2)c2cc[nH]c2c1 [Compound 87]	< 1	1 to 5
CCCCN1CCC(n2cnc3c(-c4cccc(O)c4)nc(N4CCOCC4)nc32)CC1 [Compound 88]	< 1	< 1
O=C(Cn1cnc2c(-c3cccc(O)c3)nc(N3CCOCC3)nc21)Nc1ccccc1 [Compound 89]	< 1	< 1
CCC(C)n1cnc2c(-c3cccc(O)c3)nc(N3CCOCC3)nc21 (centres unmarked) [Compound 90]	< 1	< 1

SMILES	IC50 (PI3K p110α/p85) [µM]	IC50 (mTOR) [µM]
CC(C1CC1)n1cnc2c(-c3cccc4[nH]ccc34)nc(N3CCOCC3)nc21 (centres unmarked) [Compound 91]	< 1	< 1
CC(C1CC1)n1cnc2c(-c3cccc(O)c3)nc(N3CCOCC3)nc21 (centres unmarked) [Compound 92]	< 1	< 1
CCCC(=O)N1CCC(n2cnc3c(-c4cccc5[nH]ccc45)nc(N4CCOCC4)nc32)CC1 [Compound 93]	< 1	< 1
Oc1cccc(-c2nc(N3CCOCC3)nc3c2ncn3CCN2CCCC2)c1 [Compound 94, 3-(2-morpholino-9-(2(-pyrrolidin-1-yl)ethyl)-9H-purin-6yl)phenol]	< 1	1 to 5
O=C(CCN1CCCCC1)N1CCC(n2cnc3c(-c4cccc5[nH]ccc45)nc(N4CCOCC4)nc32)CC1 [Compound 95]	< 1	< 1
CC(C)(C)CC(=O)N1CCC(n2cnc3c(-c4cccc5[nH]ccc45)nc(N4CCOCC4)nc32)CC1 [Compound 96]	< 1	< 1
Oc1cccc(-c2nc(N3CCOCC3)nc3c2ncn3C2CCOC2)c1 (centres unmarked) [Compound 97]	< 1	< 1
CCN(CC)CCn1cnc2c(-c3cccc(O)c3)nc(N3CCOCC3)nc21 [Compound 98]	< 1	> 5
CC(C)n1cnc2c(-c3cccc4[nH]ccc34)nc(N3CCOCC3)nc21 [Compound 99]	< 1	< 1
CCC(C#N)n1cnc2c(-c3cccc4[nH]ccc34)nc(N3CCOCC3)nc21 (centres unmarked) [Compound 102]	< 1	1 to 5
Cc1ccc(C(=O)N2CCC(n3cnc4c(-c5cccc6[nH]ccc56)nc(N5CCOCC5)nc43)CC2)s1 [Compound 104]	< 1	< 1
O=C(Cc1cccnc1)N1CCC(n2cnc3c(-c4cccc5[nH]ccc45)nc(N4CCOCC4)nc32)CC1 [Compound 105]	< 1	< 1
O=C(Nc1ccc(Cl)cc1)N1CCC(n2cnc3c(-c4cccc5[nH]ccc45)nc(N4CCOCC4)nc32)CC1 [Compound 106]	< 1	< 1
CS(=O)(=O)N1CCN(C(=O)Cn2cnc3c(-c4cccc(O)c4)nc(N4CCOCC4)nc32)CC1 [Compound 107]	< 1	< 1
CS(=O)(=O)N1CCN(CCn2cnc3c(-c4cccc(O)c4)nc(N4CCOCC4)nc32)CC1 [Compound 108]	< 1	< 1
CCC(C)n1cnc2c(-c3cccc4[nH]ncc34)nc(N3CCOCC3)nc21 (centres unmarked) [Compound 109]	< 1	< 1
c1cc(-c2nc(N3CCOCC3)nc3c2ncn3C2CCOC2)c2cc[nH]c2c1 (centres unmarked) [Compound 110]	< 1	< 1
CS(=O)(=O)N1CCC(n2cnc3c(-c4cccc5[nH]ccc45)nc(N4CCOCC4)nc32)CC1 [Compound 111]	< 1	< 1
CCc1nc2c(-c3cccc(O)c3)nc(N3CCOCC3)nc2n1C(C)CC (centres unmarked) [Compound 112, 3-(9-sec-Butyl-8-ethyl-2-morpholin-4-yl-9H-purin-6-yl)-phenol]	< 1	< 1
CCC(C)n1c(C)nc2c(-c3cccc(O)c3)nc(N3CCOCC3)nc21 (centres unmarked) [Compound 113]	< 1	< 1
CCC(C)n1c(Br)nc2c(-c3cccc(O)c3)nc(N3CCOCC3)nc21 (centres unmarked) [Compound 114]	< 1	< 1
Oc1cccc(-c2nc(N3CCOCC3)nc3c2nc(-c2cccs2)n3C2CCCCO2)c1 (centres unmarked) [Compound 116]	> 5	> 5
Oc1cccc(-c2nc(N3CCOCC3)nc3[nH]c(-c4cccs4)nc23)c1 [Compound 117]	< 1	> 5
CCSc1nc2c(-c3cccc(O)c3)nc(N3CCOCC3)nc2n1C(C)CC (centres unmarked) [Compound 119]	< 1	< 1
CCCCNc1nc2c(-c3cccc(O)c3)nc(N3CCOCC3)nc2n1C(C)CC (centres unmarked) [Compound 120]	< 1	< 1
CCC(C)n1c(N(C)C)nc2c(-c3cccc(O)c3)nc(N3CCOCC3)nc21 (centres unmarked) [Compound 121]	< 1	< 1
